From US9675616B2, “Arylaminoalcohol-substituted 2,3-dihydroimidazo[1,2-C]quinolines” (BAYER INTELLECTUAL PROPERTY GMBH, priority 2010, dated 2017) come the findings set out here.

By pIC50 is commonly meant the IC50 on a negative log10 scale, so that one unit is a factor of ten.

pIC50: −log10 of the molar value. A value given as a limit tells only on which side of the number the result lay.

The target of experiment [1] is PI3Kα (complex of human p110α and human p85α) (Homo sapiens (Human), UniProt P42336). Nature of the experiment: PI3Kα kinase assay (HTRF-based PI3K inhibition assay). The settings on record: 10 μM ATP, 10 μM PIP2; average value; read-out: average IC50 in the PI3K alpha biochemical assay. From the text: Determination of % Inhibition and IC50 Values of Compounds in PI3Kα Kinase Assay
PI3Kα inhibitory activity of compounds of the present invention was quantified employing the HTRF-based PI3K inhibition assay as described below.
(§1) Chemicals and Assay Materials
(§2) As reagents for the kinase reaction itself and the quantification of the reaction product, the PI3-Kinase HTRF Assay kit from Millipore (#33-017) was used. With this kit the phosphatidylinositol 3,4,5-trisphosphate (PIP3) generated in the kinase reaction is detected by displacement of a biotinylated ligand from an energy transfer complex consisting of a Europium-labeled anti-GST monoclonal antibody, a GST-tagged PH domain, biotinylated PIP3 and Streptavidin-Allophycocyanin (APC).
The amount of PI3Kα was chosen to have the enzyme reaction in the linear range and depended on the activity of the individual lot, typical concentrations in assay were in the range of 90 ng/mL. […]
The reaction was stopped by the addition of 1 μL of an stop solution (containing the biotinylated PIP3 used as a tracer), then 1 μL detection mix (containing a Europium-labeled anti-GST monoclonal antibody, a GST-tagged PH domain, and Streptavidin-Allophycocyanin) was added and resulting mixture was incubated 3 h at 22° C. to allow the formation of complexes between the detection reagents and either the PIP3 generated in the kinase reaction, or the biotinylated PIP3 added with the stop solution. Subsequently, the amount of energy transfer complex consisting of a Europium-labeled anti-GST monoclonal antibody, a GST-tagged PH domain, biotinylated PIP3 and Streptavidin-Allophycocyanin (APC) was evaluated by measurement of the resonance energy transfer from the Europium-labeled anti-GST monoclonal antibody to the Streptavidin-Allophycocyanin. Therefore, the fluorescence emissions at 620 nm and 665 nm after excitation at 350 nm were measured using a TR-FRET reader, e.g., a Pherastar (BMG Labtechnologies, Offenburg, Germany) or a Viewlux (Perkin-Elmer). […]
On the technique in general: In TR-FRET formats the signal depends on donor and acceptor labels being close together.

Experiment [2] concerns the target PI3Kβ (complex of human p110β and human p85α) (Homo sapiens (Human), UniProt P42338). The experiment can be described thus: PI3Kβ kinase assay (HTRF based PI3K inhibition assay). Format: biochemical. The settings on record: for pIC50: 10 μM ATP, 10 μM PIP2, average value, read-out: average IC50 in the PI3K beta biochemical assay; for PI3K beta average IC50/PI3K alpha average IC50: ratio of beta IC50 to alpha IC50 (isoform balance).
Excerpt: Determination of % Inhibition and IC50 Values of Compounds in PI3Kβ Kinase Assay
PI3Kβ inhibitory activity of compounds of the present invention was quantified employing the HTRF based PI3K inhibition assay as described below.
as §1, §2
For the assay 50 nL of a 80-fold concentrated solution of the test compound in DMSO was pipetted into a black low volume 384-well microtiter plate (Greiner Bio-One, Frickenhausen, Germany), 3 μl of a solution of PI3Kβ and phosphatidylinositol-4,5-bisphosphate (PIP2, 13.8 μM=>final conc. in 4 μl reaction volume=10 μM) in 1× reaction buffer (exact composition not disclosed by the vendor) were added and the mixture was incubated for 15 min at 22° C. to allow pre-binding of the test compounds to the enzyme before the start of the kinase reaction. The amount of PI3Kβ was chosen to have the enzyme reaction in the linear range and depended on the activity of the individual lot, typical concentrations in assay were in the range of 120 ng/mL. Then the kinase reaction was started by the addition of 1 μL of a solution of adenosine triphosphate (ATP, 40 μM=>final conc. in the 4 μl assay volume is 10 μM) in reaction buffer and the resulting mixture was incubated for a reaction time of 20 min at 22° C.
The reaction was stopped by the addition of 1 μL of an stop solution (containing the biotinylated PIP3 used as a tracer). Then 1 μL detection mix (containing a Europium-labeled anti-GST monoclonal antibody, a GST-tagged PH domain, and Streptavidin-Allophycocyanin) was added and resulting mixture was incubated for 3 h at 22° C. to allow the formation of complexes between the detection reagents and either the PIP3 generated in the kinase reaction, or the biotinylated PIP3 added with the stop solution. Subsequently the amount of energy transfer complex consisting of a Europium-labeled anti-GST monoclonal antibody, a GST-tagged PH domain, biotinylated PIP3 and Streptavidin-Allophycocyanin (APC) was evaluated by measurement of the resonance energy transfer from the Europium-labeled anti-GST monoclonal antibody to the Streptavidin-Allophycocyanin. Therefore, the fluorescence emissions at 620 nm and 665 nm after excitation at 350 nm were measured using a TR-FRET reader, e.g., a Pherastar (BMG Labtechnologies, Offenburg, Germany) or a Viewlux (Perkin-Elmer). The ratio of the emissions at 665 nm and at […] were taken as the measure for the amount of biotinylated PIP3 bound to the GST-tagged PH domain, which is negatively correlated with the amount of PIP3 generated.

Sequence of PI3Kβ (complex of human p110β and human p85α) (P42338 whole entry, canonical isoform): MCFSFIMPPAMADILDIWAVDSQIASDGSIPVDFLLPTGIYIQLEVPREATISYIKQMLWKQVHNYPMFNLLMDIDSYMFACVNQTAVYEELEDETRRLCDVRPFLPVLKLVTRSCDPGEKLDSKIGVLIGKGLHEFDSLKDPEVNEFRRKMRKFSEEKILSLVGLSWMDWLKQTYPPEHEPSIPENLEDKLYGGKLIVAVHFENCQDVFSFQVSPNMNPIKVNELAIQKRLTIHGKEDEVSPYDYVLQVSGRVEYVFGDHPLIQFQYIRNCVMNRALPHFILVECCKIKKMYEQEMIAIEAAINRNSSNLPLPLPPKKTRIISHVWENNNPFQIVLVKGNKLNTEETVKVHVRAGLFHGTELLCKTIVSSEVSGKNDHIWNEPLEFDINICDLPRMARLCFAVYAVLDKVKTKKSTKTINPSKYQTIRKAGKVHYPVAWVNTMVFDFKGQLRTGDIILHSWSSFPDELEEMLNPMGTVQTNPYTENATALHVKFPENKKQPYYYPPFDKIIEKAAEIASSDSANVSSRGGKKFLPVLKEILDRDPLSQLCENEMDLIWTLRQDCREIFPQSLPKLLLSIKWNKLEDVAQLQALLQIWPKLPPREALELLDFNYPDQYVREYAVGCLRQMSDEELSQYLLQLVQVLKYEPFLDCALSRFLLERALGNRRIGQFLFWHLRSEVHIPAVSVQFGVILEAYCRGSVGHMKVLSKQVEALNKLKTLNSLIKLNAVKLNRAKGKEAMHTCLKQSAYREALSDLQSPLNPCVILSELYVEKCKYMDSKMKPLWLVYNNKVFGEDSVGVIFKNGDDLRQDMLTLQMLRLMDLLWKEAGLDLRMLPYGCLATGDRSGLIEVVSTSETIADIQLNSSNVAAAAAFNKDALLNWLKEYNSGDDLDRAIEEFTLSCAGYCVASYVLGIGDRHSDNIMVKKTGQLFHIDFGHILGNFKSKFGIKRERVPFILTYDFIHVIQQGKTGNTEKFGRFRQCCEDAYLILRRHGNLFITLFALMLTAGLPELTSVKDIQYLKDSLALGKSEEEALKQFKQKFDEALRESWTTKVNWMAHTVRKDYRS
Sequence of PI3Kβ (complex of human p110β and human p85α) (P27986 whole entry partner, canonical isoform): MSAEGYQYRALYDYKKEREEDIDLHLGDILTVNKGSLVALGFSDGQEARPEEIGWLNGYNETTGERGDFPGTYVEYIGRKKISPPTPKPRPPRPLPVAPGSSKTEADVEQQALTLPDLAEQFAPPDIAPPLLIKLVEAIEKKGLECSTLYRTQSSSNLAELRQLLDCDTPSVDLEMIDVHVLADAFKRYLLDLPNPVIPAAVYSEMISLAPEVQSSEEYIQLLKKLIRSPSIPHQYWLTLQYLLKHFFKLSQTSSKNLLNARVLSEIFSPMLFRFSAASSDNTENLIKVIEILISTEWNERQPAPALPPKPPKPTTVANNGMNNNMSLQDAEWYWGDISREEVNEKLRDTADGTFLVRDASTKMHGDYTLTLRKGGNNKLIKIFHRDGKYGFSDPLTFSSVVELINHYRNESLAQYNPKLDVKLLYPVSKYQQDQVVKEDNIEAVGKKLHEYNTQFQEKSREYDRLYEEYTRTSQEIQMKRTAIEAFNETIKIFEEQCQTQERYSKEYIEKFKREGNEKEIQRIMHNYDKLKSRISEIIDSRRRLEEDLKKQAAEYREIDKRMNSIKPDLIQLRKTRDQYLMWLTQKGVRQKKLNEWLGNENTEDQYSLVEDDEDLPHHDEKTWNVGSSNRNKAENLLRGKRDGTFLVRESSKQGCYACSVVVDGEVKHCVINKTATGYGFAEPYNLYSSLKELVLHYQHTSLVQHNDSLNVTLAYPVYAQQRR
Sequence of PI3Kα (complex of human p110α and human p85α) (P42336 whole entry): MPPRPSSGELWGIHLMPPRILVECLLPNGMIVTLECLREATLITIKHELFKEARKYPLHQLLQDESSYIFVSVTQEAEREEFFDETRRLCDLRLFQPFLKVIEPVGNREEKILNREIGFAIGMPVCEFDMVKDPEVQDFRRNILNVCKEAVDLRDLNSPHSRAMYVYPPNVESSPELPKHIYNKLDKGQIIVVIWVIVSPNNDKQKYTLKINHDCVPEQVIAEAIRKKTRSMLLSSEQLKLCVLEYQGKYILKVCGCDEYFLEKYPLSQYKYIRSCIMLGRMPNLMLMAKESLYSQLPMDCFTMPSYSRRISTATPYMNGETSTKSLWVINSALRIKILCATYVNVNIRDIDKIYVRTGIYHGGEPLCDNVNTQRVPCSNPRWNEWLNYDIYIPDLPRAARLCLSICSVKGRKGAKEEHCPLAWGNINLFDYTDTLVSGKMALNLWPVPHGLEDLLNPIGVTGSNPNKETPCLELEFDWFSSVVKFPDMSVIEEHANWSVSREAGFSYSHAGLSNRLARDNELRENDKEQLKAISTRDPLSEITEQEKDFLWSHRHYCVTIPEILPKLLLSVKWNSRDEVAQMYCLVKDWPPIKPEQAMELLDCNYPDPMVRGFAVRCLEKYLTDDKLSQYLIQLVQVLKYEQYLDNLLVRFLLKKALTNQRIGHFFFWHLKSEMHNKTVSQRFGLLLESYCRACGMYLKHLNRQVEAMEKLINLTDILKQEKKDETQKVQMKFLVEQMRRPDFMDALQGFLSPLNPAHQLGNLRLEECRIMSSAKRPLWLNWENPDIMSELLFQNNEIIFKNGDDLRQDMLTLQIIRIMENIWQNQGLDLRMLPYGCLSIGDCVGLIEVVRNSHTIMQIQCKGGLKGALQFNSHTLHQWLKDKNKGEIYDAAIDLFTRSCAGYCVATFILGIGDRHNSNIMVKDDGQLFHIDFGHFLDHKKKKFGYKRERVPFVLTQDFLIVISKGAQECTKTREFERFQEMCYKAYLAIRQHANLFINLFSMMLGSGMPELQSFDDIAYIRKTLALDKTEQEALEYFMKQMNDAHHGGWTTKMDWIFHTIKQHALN
Sequence of PI3Kα (complex of human p110α and human p85α) (P27986 whole entry partner): as the sequence (P27986 whole entry partner, canonical isoform) above

As to `COc1c(OC[C@@H](O)CN[C@@H](C)c2ccccc2)ccc2c1N=C(NC(=O)c1cnc(N)nc1)N1CCN=C21` (relative stereo) [Example 5, rel-2-Amino-N-(8-{[(2R)-2-hydroxy-3-{[(1R)-1-phenylethyl]amino}propyl]oxy}-7-methoxy-2,3-dihydroimidazo[1,2-c]quinazolin-5-yl)pyrimidine-5-carboxamide], in experiment [1], the pIC50 was > 8.00. Further, in experiment [2], the pIC50 was > 8.00 and the “PI3K beta average IC50/PI3K alpha average IC50” value is on record as 5.40.

For the compound `COc1c(OC[C@@H](O)CN[C@@H](C)c2ccccc2)ccc2c1N=C(NC(=O)c1cnc(N)nc1)N1CCN=C21` [Example 6, 2-Amino-N-(8-{[(2S)-2-hydroxy-3-{[(1S)-1-phenylethyl]amino}propyl]oxy}-7-methoxy-2,3-dihydroimidazo[1,2-c]quinazolin-5-yl)pyrimidine-5-carboxamide], the pIC50 in experiment [1] and in experiment [2] was > 8.00 throughout. In addition, the “PI3K beta average IC50/PI3K alpha average IC50” value in experiment [2] came to 7.01.

Regarding `COc1c(OC[C@H](O)CN[C@@H](C)c2ccccc2)ccc2c1N=C(NC(=O)c1cnc(N)nc1)N1CCN=C21` [Example 7, 2-Amino-N-(8-{[(2R)-2-hydroxy-3-{[(1S)-1-phenylethyl]amino}propyl]oxy}-7-methoxy-2,3-dihydroimidazo[1,2-c]quinazolin-5-yl)pyrimidine-5-carboxamide], the pIC50 in experiment [1] and in experiment [2] was > 8.00 each time. In addition, the “PI3K beta average IC50/PI3K alpha average IC50” value in experiment [2] amounted to 3.44.
